Key:
C. elegans Daf12 = biological target: T1, C. elegans Daf12 (Caenorhabditis elegans, UniProt G5EFF5); test: S2 cell Daf12 reporter; type: cell-based
T1 construct: C. elegans Daf12 (amino acids 184 to end); expressed in transfected cells; host or cells: Drosophila S2 cells
Excerpt: The Drosophila S2 cell line was originally purchased from Invitrogen and was maintained in Schneider's Drosophila medium supplemented with 10% heat-inactivated bovine fetal calf serum and 1× antibiotic-antimycotic solution (Invitrogen). The Gal4 DNA binding domain (G4 DBD), corresponding to amino acids 1 through 147 of the Gal4 protein, was PCR amplified to make the fusion construct with murine RORγ (amino acids 79 to the carboxyl terminal end) lacking its DNA binding domain. The resulting chimeric gene was subcloned into the copper inducible pMT/V5-His A vector (Invitrogen) and into the constitutive pAc vector. Similar methods yielded fusion constructs between G4 DBD and murine RORα (amino acids 142 to end), Drosophila DHR3 (amino acids 120 to end), C. elegans Daf12 (amino acids 184 to end), and herpes simplex virus VP16 (amino acids 413 to end). Coding sequences for firefly luciferase (Promega) were PCR amplified and subcloned into the pUAST vector containing five Gal4 binding enhancer sequences. The Renilla luciferase construct under a pol III promoter and the pAc vector were obtained from R. Dasgupta (NYU School of Medicine). […]

[1] = tested on: Th17 cell transfer-mediated EAE; test: Th17 cell transfer-mediated (passive) EAE; type: in vivo, mouse; conditions: daily from day 2, RAG-2-deficient mice
RORγt = biological target: T2, RORγt (Mus musculus, UniProt P51450); type: cell-based
T2 construct: expressed in transfected cells; host or cells: mouse naive CD4+ T cells, retroviral MIGr vector
Protocol: Naive CD25^− CD62L^+CD44^low/int cells were sorted from RORγt^fl/fl mice and transduced with control-IRES-GFP (WT) or CRE-IRES-GFP (KO) retrovirus. […] FACS-sorted naive T cells were transduced with retroviral vectors encoding murine RORα-IRES-GFP or RORγt-IRES-GFP on Day 1 (16 h after TCR stimulation) and GFP expressing cells were gated for analysis on Day 5. […] Lymphocytes were isolated on day 21 after disease induction. The cells were stimulated for 4 h with PMA/Ionomycin and stained for surface markers and intracellular cytokines.
T cells were purified from lymph nodes and spleens of six to eight weeks old B6 mice (Taconic), by magnetically depleting B220^+ cells (autoMACS, Miltenyi), and then sorting CD8^−DAPI^−CD19^−CD4^+CD25^−CD62L^+CD44^low/Int naive T cells on a FACSAria (BD). […] For T cell polarization, 200 μl cells were seeded at 0.4×10^5 cells per mL in 96-well plates pre-coated with anti-CD3ε (5 μg/mL) and anti-CD28 (10 μg/mL). Cells were cultured for 4-5 days in Th17 (TGF-β (0.3 ng/mL), IL-6 (20 ng/mL), and anti-IFN-γ and anti-IL-4 (2 ng/mL)), Th1 (IL-12 (10 ng/mL), IL-2 (10 U/mL) and anti-IL-4 (2 ng/mL)), or Th2 (IL-4 (10 ng/mL), and anti-P35 and anti-IFN-γ 2 ng/mL)) conditions. For ectopic expression ROR proteins, native CD4^+ T cells were infected with retroviral MIGr-control, MIGr-RORα or MIGr-RORγ 24 hrs after activation, and cultured without exogenous cytokines or only with IL-6. At day 1, compounds dissolved in DMSO were added. For cytokine analysis, cells were incubated for 5 hours with phorbol 12-myristate 13-acetate (50 ng/mL; Sigma), ionomycin (500 ng/mL; Sigma) and GolgiStop (BD). Intracellular cytokine staining was performed according to the manufacturer's protocol (Cytofix/Cytoperm buffer set from BD) with alexa647-conjugated anti-IL-17a (eBioscience), and PE-conjugated anti-IFN-γ or anti-IL-4 (eBioscience). An LSR II (BD Biosciences) and FlowJo software (Tree Star) were used for flow cytometry and analysis. Dead cells were excluded using the Live/Dead fixable aqua dead cell stain kit (Invitrogen).

T2 sequence (P51450 other isoform, or with tags, fused parts or gaps): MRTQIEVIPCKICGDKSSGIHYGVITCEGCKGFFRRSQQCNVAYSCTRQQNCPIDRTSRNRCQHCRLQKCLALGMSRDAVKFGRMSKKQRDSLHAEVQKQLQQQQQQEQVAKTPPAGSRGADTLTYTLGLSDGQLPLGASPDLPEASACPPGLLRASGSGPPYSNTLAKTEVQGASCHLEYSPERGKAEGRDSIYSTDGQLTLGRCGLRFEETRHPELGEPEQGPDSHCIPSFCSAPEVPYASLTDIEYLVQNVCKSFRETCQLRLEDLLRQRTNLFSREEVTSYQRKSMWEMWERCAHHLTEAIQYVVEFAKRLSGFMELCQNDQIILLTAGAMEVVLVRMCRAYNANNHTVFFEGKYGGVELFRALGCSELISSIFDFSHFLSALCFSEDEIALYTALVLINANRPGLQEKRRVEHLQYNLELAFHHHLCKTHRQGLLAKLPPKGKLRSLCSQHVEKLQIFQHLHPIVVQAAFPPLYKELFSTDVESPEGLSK
T1 sequence (G5EFF5 184-753 limits assumed): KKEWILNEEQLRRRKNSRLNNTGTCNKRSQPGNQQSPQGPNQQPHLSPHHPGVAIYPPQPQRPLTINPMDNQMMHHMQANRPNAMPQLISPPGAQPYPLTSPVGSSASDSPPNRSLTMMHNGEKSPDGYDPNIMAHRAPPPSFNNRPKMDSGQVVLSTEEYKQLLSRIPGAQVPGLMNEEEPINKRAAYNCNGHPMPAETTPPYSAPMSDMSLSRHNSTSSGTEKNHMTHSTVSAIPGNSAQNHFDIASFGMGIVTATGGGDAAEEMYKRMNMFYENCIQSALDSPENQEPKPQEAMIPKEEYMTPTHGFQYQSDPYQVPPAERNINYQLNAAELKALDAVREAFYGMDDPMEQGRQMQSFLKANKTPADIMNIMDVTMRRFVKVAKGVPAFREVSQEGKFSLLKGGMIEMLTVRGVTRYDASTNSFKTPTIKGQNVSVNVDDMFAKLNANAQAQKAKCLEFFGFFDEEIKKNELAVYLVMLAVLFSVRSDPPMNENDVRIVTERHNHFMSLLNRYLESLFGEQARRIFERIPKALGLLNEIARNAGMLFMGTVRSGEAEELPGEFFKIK

C[C@H]1O[C@@H](O[C@H]2[C@@H](O)C[C@H](O[C@H]3[C@@H](O)C[C@H](O[C@H]4CC[C@@]5(C)[C@H](CC[C@@H]6[C@@H]5C[C@@H](O)[C@]5(C)[C@@H](C7=CC(=O)OC7)CC[C@]65O)C4)O[C@@H]3C)O[C@@H]2C)C[C@H](O)[C@@H]1O [Digoxin]
inhibition of C. elegans Daf12 activity (C. elegans Daf12): did not inhibit
onset and severity of Th17 cell transfer-mediated EAE [1]: delayed onset and reduced severity
RORγt- versus RORα-mediated induction of IL-17a (RORγt): suppressed RORγt—but not RORα-mediated induction of IL-17a

Reference: patent publication US9505798B2, “Steroid compounds as RORyt modulators and uses thereof” (New York University, priority 2010, dated 2016)
